Experiment [1] deals with T1, human p38α (MAPK14) (Homo sapiens, UniProt Q16539).
T1 construct: GST; purchased Invitrogen
Briefly: AlphaScreen kinase activity assay, human p38α. Format: biochemical. On the procedure: (§1) The inhibitory activity of CHF6297 was determined using an AlphaScreen® (PerkinElmer)-based kinase activity assay as previously described ([Armani et al., 2022]). Kinase reactions consisted of 25 mM 4-(2-hydroxyethyl)-1-piperazine ethanesulfonic acid (HEPES), pH 7.5; 10 mM MgCl2; 100 μM Na3VO4; 2 mM DTT; 0.05 mg/mL Tween^TM 20; 100 pM solution of p38α, p38β, p38δ, or p38γ (Invitrogen); 1% DMSO; and 0.3 μg/mL ATF-2 fusion protein (New England Biolabs). Compounds were incubated under these conditions for 2 h, at 25°C, prior to the initiation of kinase activity by the addition of 250 μM ATP. […] Detection was performed by measuring luminescence following the addition of AlphaScreen donor beads (PerkinElmer, 6765300) and Protein A AlphaScreen acceptor beads (PerkinElmer, 6760137), both at a final concentration of 20 μg/mL. IC50 values were determined from concentration–response curves. […]
(§2) CHF6297 was tested in biochemical enzymatic assays to determine its potency as an inhibitor of human p38α (MAPK14) and of the other human p38 isoforms, p38β (MAPK11), p38γ ([…]), and p38δ ([…]) ([Armani et al., 2022]). Activity in the primary screening assay was determined using AlphaScreen technology, in which a peptide (ATF2) is phosphorylated by the appropriate GST-tagged p38 protein isoform in the presence of CHF6297 at concentrations from semi-logarithmic dilutions. […]

Experiment [2] deals with T2, human p38β (MAPK11) (Homo sapiens, UniProt Q15759).
T2 construct: GST; purchased Invitrogen
Briefly: AlphaScreen kinase activity assay, human p38β. In kind it is biochemical. Here is the method:
as §1, §2

For experiment [3], the target named is T3, human p38γ (Homo sapiens, UniProt P53778).
T3 construct: GST; purchased Invitrogen
T3 sequence (P53778 1-367): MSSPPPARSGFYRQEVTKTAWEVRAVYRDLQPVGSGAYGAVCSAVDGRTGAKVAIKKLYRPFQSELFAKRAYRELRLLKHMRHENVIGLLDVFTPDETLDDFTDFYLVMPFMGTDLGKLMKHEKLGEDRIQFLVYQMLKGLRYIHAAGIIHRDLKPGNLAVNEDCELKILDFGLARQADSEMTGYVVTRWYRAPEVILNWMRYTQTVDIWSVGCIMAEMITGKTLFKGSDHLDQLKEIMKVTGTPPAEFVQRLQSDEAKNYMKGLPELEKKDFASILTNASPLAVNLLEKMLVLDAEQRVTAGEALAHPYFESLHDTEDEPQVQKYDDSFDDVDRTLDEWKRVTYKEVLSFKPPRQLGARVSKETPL
Briefly: AlphaScreen kinase activity assay, human p38γ. In kind it is biochemical. On the procedure: as §1, §2

For experiment [4], the target named is T4, human p38δ (Homo sapiens, UniProt O15264).
T4 construct: GST; purchased Invitrogen
T4 sequence (O15264 1-365): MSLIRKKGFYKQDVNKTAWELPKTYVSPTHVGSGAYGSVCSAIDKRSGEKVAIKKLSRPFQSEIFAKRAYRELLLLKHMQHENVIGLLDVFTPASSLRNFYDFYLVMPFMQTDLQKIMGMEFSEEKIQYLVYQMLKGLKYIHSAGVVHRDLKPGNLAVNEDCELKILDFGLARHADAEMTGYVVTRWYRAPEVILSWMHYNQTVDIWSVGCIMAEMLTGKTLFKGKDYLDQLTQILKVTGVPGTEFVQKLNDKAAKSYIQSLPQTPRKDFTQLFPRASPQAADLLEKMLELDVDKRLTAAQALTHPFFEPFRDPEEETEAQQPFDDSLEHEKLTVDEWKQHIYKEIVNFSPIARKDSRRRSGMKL
Briefly: KINOMEscan competition binding assay (DiscoverX), p38δ. As to conditions: read-out: Kd (mean ± s.d.). The source says:
The KINOMEscan® platform (DiscoverX) was used, which uses a novel and proprietary active site-directed competition binding assay to quantitatively measure the interactions between human p38 isoforms and the target compound.

Experiment [5] has as its system HBSMCs. Kind of experiment: CSE-evoked IL-8 release in human bronchial smooth muscle cells. Format: cell-based. Here is the method: Cigarette smoke extract (CSE) was generated as reported previously ([Moretto et al., 2012]). Briefly, aqueous CSE was obtained from the combustion of four cigarettes (Marlboro Red, 12 mg tar, 0.9 mg nicotine each) bubbled through 50 mL of the culture medium and subsequently filtered through a 0.2-μm-pore filter (Millipore, Billerica, MA). To ensure reproducibility among different CSE batches, the absorbance [optical density (OD)] measured at 320 nm was used as a measure of the “strength” of the extract. Dilutions were made with culture media to obtain the desired absorbance. The CSE was freshly prepared on the day of the experiment and immediately used after preparation. Human bronchial smooth muscle cells (HBSMCs) were seeded in DMEM with 10% FBS (50 U/mL penicillin, 0.05 mg/mL streptomycin, and 2 mM L-glutamine) in 48-well plates at a density of 10,000 cells/well, grown to ∼80%–90% confluence and incubated overnight in serum-free DMEM before treatments. All the treatments were performed in serum-free DMEM. The cells were pretreated for 30 min with either the vehicle or CHF6297 or losmapimod before stimulation with freshly prepared CSE, TNF-α, (1 ng/mL), or the vehicle for 18 h at 37°C. Human IL-8 was measured in the collected supernatants by use of a paired-antibody quantitative ELISA kit (BioSource International, Camarillo, CA).

Setting [6] is: n = 3, read-out: IC50 (mean ± s.d.).

From article PMC10973839, “CHF6297: a novel potent and selective p38 MAPK inhibitor with robust anti-inflammatory activity and suitable for inhaled pulmonary administration as dry powder” (Frontiers in Pharmacology, 2024) come the findings set out here.

Structures are written as SMILES.

T1 sequence (Q16539 whole entry): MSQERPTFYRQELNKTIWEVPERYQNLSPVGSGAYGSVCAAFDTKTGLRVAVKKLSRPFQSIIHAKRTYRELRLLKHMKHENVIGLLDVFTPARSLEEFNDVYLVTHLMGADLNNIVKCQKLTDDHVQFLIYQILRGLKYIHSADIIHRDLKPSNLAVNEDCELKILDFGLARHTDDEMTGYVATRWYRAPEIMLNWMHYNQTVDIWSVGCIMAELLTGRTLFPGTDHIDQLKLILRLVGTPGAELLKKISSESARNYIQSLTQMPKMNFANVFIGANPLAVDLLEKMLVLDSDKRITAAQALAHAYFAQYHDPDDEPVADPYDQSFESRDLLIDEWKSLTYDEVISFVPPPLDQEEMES
T2 sequence (Q15759 whole entry): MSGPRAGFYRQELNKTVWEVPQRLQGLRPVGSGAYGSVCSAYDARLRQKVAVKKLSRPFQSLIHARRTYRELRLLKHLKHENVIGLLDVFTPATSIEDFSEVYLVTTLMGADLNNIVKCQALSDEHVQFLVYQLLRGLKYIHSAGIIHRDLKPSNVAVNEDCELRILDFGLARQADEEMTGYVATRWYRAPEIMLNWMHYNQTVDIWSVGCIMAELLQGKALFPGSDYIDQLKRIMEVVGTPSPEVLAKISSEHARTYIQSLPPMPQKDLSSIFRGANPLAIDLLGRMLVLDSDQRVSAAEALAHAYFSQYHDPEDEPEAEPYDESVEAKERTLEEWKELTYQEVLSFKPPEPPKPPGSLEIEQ

In the case of `C[C@H]1CCCCN1c1nnc2ccc(O[C@@H]3CC[C@H](NC(=O)Nc4cc(C(C)(C)C)nn4-c4cnn(CCN(C)C)c4)c4ccccc43)cn12` [CHF6297], the “IC50 fold-difference vs. human p38α” value was 1 in experiment [1], 1.4 in experiment [2] and 6,750 in experiment [3]. Further, the IC50 in experiment [1] (setting [6]) came out at 0.14 ± 0.06 nM; in experiment [2] (setting [6]) it was 0.2 ± 0.017 nM; in experiment [3] (setting [6]), 945 ± 58 nM; in experiment [5] (Homo sapiens, 18 h), 0.79 nM. Moreover, in experiment [4], the Kd was above 1000 nM. Also, in experiment [5] (CSE-evoked), the “maximum inhibition of IL-8” value turned out to be 100%.
